Tests used:
HL-60 = test: In vitro cytotoxicity, MTS assay; assay type: cell-based; conditions: Homo sapiens, 72 h, read-out: Inhibitory concentration (IC50) HL-60
Description: (§1) Cladribine phosphoramidate derivatives were evaluated against six leukaemic cell lines (KG1, U937, K562, NB4R2, NB4 and HL-60) in vitro. Inhibitory concentration (IC50) at which 50% of the cells were no longer viable (calculated using MTS assay) was determined. Cells were treated with Cladribine and its 3′-phosphoramidate derivatives at concentrations between 100 μM and 0.02 μM by serial dilutions and incubated for 72 h at 37° C., 5% CO2 in a final volume of 90 μL. Twenty microliters of MTS reagent (Promega UK Ltd, Southampton, Hants) was added to the tumour cell cultures and reaction incubated for a further 4 h at 37° C., 5% CO2. The absorbance of the reaction after this time was read by spectrophotometry at 490 nm and the percentage of viable cells calculated relative to untreated control cells in the same assay.

K562 = test: In vitro cytotoxicity, MTS assay; assay type: cell-based; conditions: Homo sapiens, 72 h, read-out: Inhibitory concentration (IC50) K562
Description: as §1

KG1 = test: In vitro cytotoxicity, MTS assay; assay type: cell-based; conditions: Homo sapiens, KG-1, 72 h, read-out: Inhibitory concentration (IC50) KG1
Description: as §1

NB4R2 = test: In vitro cytotoxicity, MTS assay; assay type: cell-based; conditions: 72 h, read-out: Inhibitory concentration (IC50) NB4R2
Description: as §1

NB4 = test: In vitro cytotoxicity, MTS assay; assay type: cell-based; conditions: Homo sapiens, NB-4, 72 h, read-out: Inhibitory concentration (IC50) NB4
Description: as §1

U937 = test: In vitro cytotoxicity, MTS assay; assay type: cell-based; conditions: Homo sapiens, U-937, 72 h, read-out: Inhibitory concentration (IC50) U937
Description: as §1

[1] = test system: HEL92.1.7 Erythroleukaemia; test: In vitro viability assay, CellTiterGlo; assay type: cell-based; conditions: for Top Inhibition (%): HEL92.1.7, CellTiterGlo, 72 h; for EC50: Homo sapiens, HEL 92.1.7, 72 h, read-out: EC50 (μM) Ab
Description: (§2) In vitro viability assay was performed to assess the effects of compounds on cell viability in selected cell lines over 72 h using the CellTiterGlo (CTG, Promega-G7573) assay. The tests were performed in duplicates with treatment of compounds at 9 points, 3.16 folds titration in 96 well plates over ˜72 h. The compound starting concentrations were […]. Cell viability assay using CellTiterGlo in 96-well plate were performed. Compounds were dissolved to 40 mM with thawed 100% DMSO. Compounds were serially diluted at 3.16-fold in thawed DMSO, and warmed to 37° C. before being dissolved in media (2 μl+200 μl). After compounds were dissolved in media, media containing compounds were warmed to 37° C. in incubator and then compounds in media were added to cell plates (50 μl+50 μl) in duplicates. The compounds' final concentrations were from 198 μM to 19.9 nM. Solubility of all compounds was checked and recorded again, then the plates were transferred to CO2 tissue culture incubator immediately and incubated for 3 days. DMSO final concentration is 0.5%.

[2] = test system: HL-60 Promyelocytic leukaemia; test: In vitro viability assay, CellTiterGlo; assay type: cell-based; conditions: for Top Inhibition (%): HL-60, CellTiterGlo, 72 h; for EC50: Homo sapiens, HL-60, 72 h, read-out: EC50 (μM) Ab
Description: as §2

[3] = test system: KG-1 Acute myelogenous leukaemia; test: In vitro viability assay, CellTiterGlo; assay type: cell-based; conditions: for EC50: Homo sapiens, KG-1, 72 h, read-out: EC50 (μM) Ab; for Top Inhibition (%): KG-1, CellTiterGlo, 72 h
Description: as §2

[4] = test system: RL Non-Hodgkin's lymphoma; test: In vitro viability assay, CellTiterGlo; assay type: cell-based; conditions: 72 h; for Top Inhibition (%): CellTiterGlo; for EC50: Homo sapiens, read-out: EC50 (μM) Ab
Description: as §2

[5] = test system: Z-138 Mantle cell lymphoma; test: In vitro viability assay, CellTiterGlo; assay type: cell-based; conditions: for EC50: Homo sapiens, Z-138, 72 h, read-out: EC50 (μM) Ab; for Top Inhibition (%): Z-138, CellTiterGlo, 72 h
Description: as §2

[6] = test system: MCF-7 Mammary epithelial adenocarcinoma; test: In vitro viability assay, CellTiterGlo; assay type: cell-based, human; conditions: for EC50: Homo sapiens, MCF7, 72 h, read-out: EC50 (μM) Ab; for Top Inhibition (%): MCF-7, CellTiterGlo, 72 h
Description: as §2

Compound | IC50 (HL-60) | IC50 (K562) | IC50 (KG1) | IC50 (NB4R2) | IC50 (NB4) | IC50 (U937) | Top Inhibition (%) [1] | EC50 [1] | Top Inhibition (%) [2] | EC50 [2] | EC50 [3] | Top Inhibition (%) [3] | Top Inhibition (%) [4] | EC50 [4] | EC50 [5] | Top Inhibition (%) [5] | EC50 [6] | Top Inhibition (%) [6]
CC(C)C[C@H](NP(=O)(Oc1ccccc1)OC1C[C@H](n2cnc3c(N)nc(Cl)nc32)O[C@@H]1CO)C(=O)OCc1ccccc1 (stereo partly drawn) [Compound 5, 2-Chloro-2 ‘-deoxyadenosine-3’-[phenyl-(benzoxy-L-leucinyl)]-phosphate] | 4450 nM | > 10000 nM | 5040 nM | 1570 nM | 2560 nM | > 10000 nM |  |  |  |  |  |  |  |  |  |  |  | 
C[C@H](NP(=O)(Oc1ccccc1)OC1C[C@H](n2cnc3c(N)nc(Cl)nc32)O[C@@H]1CO)C(=O)OC1CCCCC1 (stereo partly drawn) [Compound 9, 2-Chloro-2′-deoxyadenosine-3′-[phenyl-(cyclohexoxy-L-alaninyl)] phosphate] |  |  |  |  |  |  | 97.2% | 0.044 µM | 87.7% | 0.13 µM | 0.8 µM | 96.9% | 89.9% | 0.14 µM | 0.051 µM | 99.9% | 21 µM | 100%
C[C@H](NP(=O)(Oc1ccccc1)OC1C[C@H](n2cnc3c(N)nc(Cl)nc32)O[C@@H]1CO)C(=O)OCC(C)(C)C (stereo partly drawn) [Compound 10, 2-Chloro-2′-deoxyadenosine-3′-[phenyl-(2,2-dimethylpropoxy-L-alaninyl)] phosphate] | 5300 nM |  |  |  | > 10000 nM |  | 97.2% | 0.042 µM | 87.7% | 0.12 µM | 0.6 µM | 95% | 89.8% | 0.15 µM | 0.047 µM | 100% | 22 µM | 99.2%
C[C@H](NP(=O)(Oc1cccc2ccccc12)OC1C[C@H](n2cnc3c(N)nc(Cl)nc32)O[C@@H]1CO)C(=O)OC1CCCCC1 (stereo partly drawn) [Compound 8, 2-Chloro-2 ‘-deoxyadenosine-3’-[1-naphthyl-(cyclohexoxy-L-alaninyl)] phosphate] |  |  |  |  |  |  | 98.3% | 0.18 µM | 96% | 0.46 µM | 2.75 µM | 98.4% | 98.1% | 0.85 µM | 3.5 µM | 100% | 7.97 µM | 101%
CCOC(=O)[C@H](C)NP(=O)(Oc1ccccc1)OC1C[C@H](n2cnc3c(N)nc(Cl)nc32)O[C@@H]1CO (stereo partly drawn) [Compound 1, 2-Chloro-2 ‘-deoxyadenosine-3’-[phenyl-(ethoxy-L-alaninyl)]-phosphate] | 2680 nM | > 10000 nM | 1760 nM | 2520 nM | 740 nM | 3060 nM |  |  |  |  |  |  |  |  |  |  |  | 
CCC(C)OC(=O)[C@H](C)NP(=O)(Oc1ccccc1)OC1C[C@H](n2cnc3c(N)nc(Cl)nc32)O[C@@H]1CO (stereo partly drawn) [Compound 16, 2-Chloro-2′-deoxyadenosine-3′-[phenyl-(2-butoxy-L-alaninyl)] phosphate] | 8000 nM | > 10000 nM | 7000 nM | > 10000 nM | 9000 nM | 2000 nM |  |  |  |  |  |  |  |  |  |  |  | 
Nc1nc(Cl)nc2c1ncn2[C@H]1CC(OP(=O)(N[C@@H](Cc2ccccc2)C(=O)OCc2ccccc2)Oc2cccc3ccccc23)[C@@H](CO)O1 (stereo partly drawn) [Compound 13, 2-Chloro-2′-deoxyadenosine-3′-[1-naphthyl(benzoxy-L-phenylaninyl)] phosphate] | 1000 nM | 7000 nM | 1000 nM | 800 nM | 300 nM | 1000 nM |  |  |  |  |  |  |  |  |  |  |  | 
Nc1nc(Cl)nc2c1ncn2[C@H]1CC(OP(=O)(N[C@@H](Cc2ccccc2)C(=O)OCc2ccccc2)Oc2ccccc2)[C@@H](CO)O1 (stereo partly drawn) [Compound 12, 2-Chloro-2 ‘-deoxyadenosine-3’-[phenyl-(benzoxy-L-phenylalaninyl)] phosphate] | 2000 nM | 10000 nM | 4000 nM | 2000 nM | 1000 nM | 2000 nM |  |  |  |  |  |  |  |  |  |  |  | 
CC(C)OC(=O)[C@H](C)NP(=O)(Oc1ccccc1)OC1C[C@H](n2cnc3c(N)nc(Cl)nc32)O[C@@H]1CO (stereo partly drawn) [Compound 15, 2-Chloro-2′-deoxyadenosine-3′-[phenylaso-propoxy-L-alaninyl)] phosphate] | 2000 nM | > 10000 nM | 5000 nM | 9000 nM | 6000 nM | 400 nM |  |  |  |  |  |  |  |  |  |  |  | 
CCOC(=O)C(C)(C)NP(=O)(Oc1ccccc1)OC1C[C@H](n2cnc3c(N)nc(Cl)nc32)O[C@@H]1CO (stereo partly drawn) [Compound 11, 2-Chloro-2 ‘-deoxyadenosine-3’-[phenyl-(ethoxy-2,2-dimethylglycinyl)]-phosphate] | 300 nM |  |  |  | > 10000 nM |  |  |  |  |  |  |  |  |  |  |  |  | 
C[C@H](NP(=O)(Oc1ccccc1)OC1C[C@H](n2cnc3c(N)nc(Cl)nc32)O[C@@H]1CO)C(=O)OC(C)(C)C (stereo partly drawn) [Compound 2, 2-Chloro-2 ‘-deoxyadenosine-3’-[phenyl-(tert-butoxy-L-alaninyl)]-phosphate] | > 10000 nM | > 10000 nM | 2000 nM | > 10000 nM | > 10000 nM | 6000 nM |  |  |  |  |  |  |  |  |  |  |  | 
Nc1nc(Cl)nc2c1ncn2[C@H]1CC(OP(=O)(NCC(=O)OCc2ccccc2)Oc2ccccc2)[C@@H](CO)O1 (stereo partly drawn) [Compound 4, 2-Chloro-2 ‘-deoxyadenosine-3’-[phenyl-(benzoxy-glycinyl)]-phosphate] | > 10000 nM | > 10000 nM | > 10000 nM | 5560 nM | 8040 nM | > 10000 nM |  |  |  |  |  |  |  |  |  |  |  | 
CC(C)[C@H](NP(=O)(Oc1ccccc1)OC1C[C@H](n2cnc3c(N)nc(Cl)nc32)O[C@@H]1CO)C(=O)OCc1ccccc1 (stereo partly drawn) [Compound 14, 2-Chloro-2′-deoxyadenosine-3′-[phenyl-(benzoxy-L-valinyl)] phosphate] | 3000 nM | > 10000 nM | 2000 nM | 2000 nM | 800 nM | 400 nM |  |  |  |  |  |  |  |  |  |  |  | 
C[C@@H](NP(=O)(Oc1ccccc1)OC1C[C@H](n2cnc3c(N)nc(Cl)nc32)O[C@@H]1CO)C(=O)OCc1ccccc1 (stereo partly drawn) [Compound 3, 2-Chloro-2 ‘-deoxyadenosine-3’-[phenyl-(benzoxy-D-alaninyl)]-phosphate] | > 10000 nM | > 10000 nM | > 10000 nM | > 10000 nM | 7820 nM | 7520 nM |  |  |  |  |  |  |  |  |  |  |  | 
CCCCCOC(=O)[C@H](CC(C)C)NP(=O)(Oc1cccc2ccccc12)OC1C[C@H](n2cnc3c(N)nc(Cl)nc32)O[C@@H]1CO (stereo partly drawn) [Compound 7, 2-Chloro-2′-deoxyadenosine-3′-[1-naphthyl-(pentoxy-L-leucinyl)] phosphate] |  |  |  |  |  |  | 98.6% | 0.07 µM | 98% | 0.27 µM | 1.5 µM | 98.8% | 100% | 0.5 µM | 1.07 µM | 101% | 5.45 µM | 103%
C[C@H](NP(=O)(Oc1ccccc1)OC1C[C@H](n2cnc3c(N)nc(Cl)nc32)O[C@@H]1CO)C(=O)O[C@@H](C)c1ccccc1 (stereo partly drawn) [Compound 17] | 3200 nM |  |  |  | 5500 nM |  |  |  |  |  |  |  |  |  |  |  |  | 

— patent publication US10906929B2, “Phosphoramidate nucleoside derivatives as anticancer agents” (NuCana plc, priority 2016, dated 2021)
